Assay results taken from PMC5109486, “Computational Drug Target Screening through Protein Interaction Profiles” (Scientific Reports, 2016).
Where two headings read alike, the source gives them in different places. One block for each compound: values may come before it.

Key:
hCOX-1 = target: T1, hCOX-1 (Homo sapiens, UniProt P23219); assay: hCOX-1 activity, TMPD oxidation, human platelet microsomes, arachidonic acid substrate; format: biochemical; conditions: for inhibition at 25 µM: read-out: % enzymatic inhibition of hCOX-1 at 25 μM, compounds precipitated at higher concentrations
T1 construct: using arachidonic acid as substrate for hCOX-1 from human platelet microsomes; from tissue; host or cells: microsomes of human platelets isolated from buffy coats
Description: Human platelets were isolated by centrifugation from buffy coats obtained from the Centro de Transfusion de Galicia (Santiago de Compostela, Spain) and prepared as described.
The upper layer obtained in this centrifugation, containing platelet rich plasma, was gently removed and centrifuged at 850 g for 20 min at 4 °C in a centrifuge (J2-MI, Beckman Instruments, Inc., Palo Alto, California, USA). The platelet pellet was recovered, resuspended with washing buffer, and centrifuged again at 850 g for 20 min at 4 °C. To prepare human platelet microsomes, the resultant platelet pellet of the above centrifugation was resuspended in 7 mL of sodium phosphate buffer (10 mM, pH 7.4), sonicated at 50 W for 50 s (5 pulses of 10 s), and centrifuged at 850 g for 20 min at 4 °C in a refrigerated centrifuge. The pellet was discarded and the supernatant was subsequently centrifuged at 10 000 g for 10 min at 4 °C in the same centrifuge. The pellet obtained in this centrifugation was discarded and the supernatant was finally centrifuged at 100 000 g for 1 h at 4 °C in an ultracentrifuge (Beckman Instruments, Inc., Palo Alto, California, USA).
The biological evaluation of the test drugs on hCOX-1 activity (bisdioxygenase and peroxidase reactions) was investigated by measuring their effects on the oxidation of N, N, N’, N’-tetramethyl-p-phenylenediamine (TMPD) to N, N, N’, N’-tetramethyl-p-phenylene-diimine, using arachidonic acid as substrate for hCOX-1 from human platelet microsomes (obtained as described in the above paragraph). The formation of N, N, N’, N’-tetramethyl-p-phenylenediimine (a coloured compound) from N, N, N’, N’-tetramethyl-p-phenylenediamine catalyzed by COX can be detected spectrophotometrically at 600 nm. In this study, hCOX activity was evaluated using a spectrophotometric method. Briefly, 0.1 mL of Tris–HCl buffer (100 mM, pH 8) containing […], […], various concentrations of the test drugs, and appropriate amounts of hCOX-1 (0.08 A600 U/min) were incubated for short periods of time (3–5 min) to avoid a notable loss of COX activity at 37 °C in a flat-bottom 96-well microtest plate (BD Biosciences, Franklin Lakes, NJ, USA) placed in the dark multimode microplate reader chamber. After this incubation period, the reaction was started by adding (final concentration) […] and the formation of N, N,N’,N’-tetramethyl-p-phenylenediimine from TMPD, i.e., the increase in absorbance at 600 nm was measured at 37 °C in a multi-mode microplate reader (Fluostar Optima, BMG Labtech GmbH, Offenburg, Germany) for 25 s, aperiod in which the absorbance increased linearly from the beginning. The specific absorbance (used to obtain the final results) was calculated after subtraction of the background absorbance generated in wells containing a blank solution, i.e., all components except the COX isoform, which were replaced by a Tris–HCl buffer solution.
Control experiments were carried out simultaneously by replacing the test drugs (new compounds and reference inhibitors) with appropriate dilutions of the vehicles. In addition, the possible capacity of the above test drugs to modify the absorbance of the reaction mixture due to non-enzymatic inhibition (e.g., for directly reacting with TMPD) was determined by adding these drugs to solutions containing only TMPD in a Tris–HCl buffer solution.

hMAO-B [1] = target: T2, hMAO-B (Homo sapiens, UniProt P27338); assay: hMAO-B enzymatic inhibition, Amplex Red MAO assay (H2O2 from p-tyramine); format: biochemical
T2 construct: purchased Sigma-Aldrich; host or cells: insect cells (BTI-TN-5B1-4) infected with recombinant baculovirus; microsomal preparation
T2 sequence (P27338 1-520): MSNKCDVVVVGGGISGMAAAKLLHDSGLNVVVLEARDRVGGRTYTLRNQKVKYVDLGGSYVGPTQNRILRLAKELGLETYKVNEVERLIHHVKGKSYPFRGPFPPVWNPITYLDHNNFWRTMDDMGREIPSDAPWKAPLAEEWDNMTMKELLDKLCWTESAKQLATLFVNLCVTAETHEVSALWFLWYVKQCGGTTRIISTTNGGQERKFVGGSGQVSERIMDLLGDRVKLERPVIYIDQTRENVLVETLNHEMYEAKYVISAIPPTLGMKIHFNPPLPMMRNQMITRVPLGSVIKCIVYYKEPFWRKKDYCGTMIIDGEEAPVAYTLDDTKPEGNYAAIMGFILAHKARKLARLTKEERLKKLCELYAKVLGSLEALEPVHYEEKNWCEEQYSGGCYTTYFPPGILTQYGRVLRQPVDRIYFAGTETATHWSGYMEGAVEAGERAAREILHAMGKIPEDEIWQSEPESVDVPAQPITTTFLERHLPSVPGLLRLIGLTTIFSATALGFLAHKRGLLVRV
Description: (§1) The biological evaluation on hMAO activity was investigated by measuring effects on the production of hydrogen peroxide (H2O2) from p-tyramine, using the Amplex® Red MAO assay kit and microsomal isoforms prepared from insect cells (BTI-TN-5B1-4) infected with recombinant baculovirus containing cDNA inserts for hMAO-A and hMAO-B. The production of H2O2 catalysed by the MAO isoforms was detected using 10-acetyl-3,7-dihydroxyphenoxazine (Amplex® Red reagent), a non fluorescent and highly sensitive probe that reacts with H2O2 in the presence of horseradish peroxidase to produce a fluorescent product, resorufin.
The selected compounds were dissolved in DMSO (Sigma-Aldrich, Alcobendas, Madrid, Spain) to prepare 10 mM stock solutions, which were kept for storage at −20 °C. Percentage of DMSO used in the experiments was never higher than 1%. Human recombinant MAO isoforms (native enzymes), used in the experiments, were purchased from Sigma-Aldrich (Alcobendas, Madrid, Spain). Test compounds were acquired from Sigma-Aldrich and Vitro S.A. (Madrid, Spain).
After this incubation period, the reaction was started by adding (final concentrations) 200 μM Amplex® Red reagent, 1 U/mL horseradish peroxidase and 1 mMp-tyramine. […] Control experiments were carried out simultaneously by replacing the test drugs (new compounds and reference inhibitor) with appropriate dilutions of the vehicles. In addition, the possible capacity of the above test drugs to modify the fluorescence generated in the reaction mixture due to non-enzymatic inhibition (e.g., for directly reacting with Amplex® Red reagent) was determined by adding these drugs to solutions containing only the Amplex® Red reagent in a sodium phosphate buffer. To determine the kinetic parameters of hMAO (Km and Vmax), the corresponding enzymatic activity was evaluated (under the experimental conditions described above) in the presence of a number (a wide range) of p-tyramine concentrations.
The specific fluorescence emission (used to obtain the final results) was calculated after subtraction of the background activity, which was determined from wells containing all components except the hMAO, which were replaced by a sodium phosphate buffer solution.

hMAO-A = target: T3, hMAO-A (Homo sapiens, UniProt P21397); assay: hMAO-A enzymatic inhibition, Amplex Red MAO assay (H2O2 from p-tyramine); format: biochemical
T3 construct: purchased Sigma-Aldrich; host or cells: insect cells (BTI-TN-5B1-4) infected with recombinant baculovirus; microsomal preparation
T3 sequence (P21397 1-527): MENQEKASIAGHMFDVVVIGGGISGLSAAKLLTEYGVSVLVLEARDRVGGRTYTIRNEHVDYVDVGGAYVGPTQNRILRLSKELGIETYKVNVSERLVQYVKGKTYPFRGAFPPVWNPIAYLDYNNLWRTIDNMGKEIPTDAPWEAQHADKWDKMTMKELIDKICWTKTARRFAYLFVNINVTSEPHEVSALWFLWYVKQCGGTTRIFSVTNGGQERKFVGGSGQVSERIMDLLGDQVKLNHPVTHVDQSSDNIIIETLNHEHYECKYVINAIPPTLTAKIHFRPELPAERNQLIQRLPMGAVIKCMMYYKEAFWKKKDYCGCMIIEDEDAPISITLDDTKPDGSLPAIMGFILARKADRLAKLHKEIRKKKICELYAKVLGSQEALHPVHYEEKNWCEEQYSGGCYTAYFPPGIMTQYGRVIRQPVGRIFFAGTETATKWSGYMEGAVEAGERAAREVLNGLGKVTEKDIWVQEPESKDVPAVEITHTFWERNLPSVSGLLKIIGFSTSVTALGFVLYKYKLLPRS
Description: as §1, with “resorufin. […]” for “resorufin.”
After this incubation period, the reaction was started by adding (final concentrations) 200 μM Amplex® Red reagent, 1 U/mL horseradish peroxidase and 1 mMp-tyramine. […] In addition, the possible capacity of the above test drugs to modify the fluorescence generated in the reaction mixture due to non-enzymatic inhibition (e.g., for directly reacting with Amplex® Red reagent) was determined by adding these drugs to solutions containing only the Amplex® Red reagent in a sodium phosphate buffer. To determine the kinetic parameters of hMAO (Km and Vmax), the corresponding enzymatic activity was evaluated (under the experimental conditions described above) in the presence of a number (a wide range) of p-tyramine concentrations. […]

hMAO-B [2] = tested on: hMAO-B; design: method as in PMID 19948168, PMID 14965331; conditions: cited from earlier work
[3] = Table 2, mean ± S.E.M., n = 3, control assays, read-out: IC50 hCOX-1
[4] = Table 3, mean ± S.E.M., n = 3, rational assays selected by the modeling, read-out: IC50 hCOX-1
[5] = Table 2, mean ± S.E.M., n = 3, rational assays selected by the modeling, read-out: IC50 hMAO-B
[6] = highest concentration tested 100 μM, read-out: IC50 hMAO-B (rounded)
[7] = Table 3, mean ± S.E.M., n = 3, control assays, read-out: IC50 hMAO-B
[8] = highest concentration tested 100 μM, read-out: IC50 hCOX-1 (rounded)

T1 sequence (P23219 24-599): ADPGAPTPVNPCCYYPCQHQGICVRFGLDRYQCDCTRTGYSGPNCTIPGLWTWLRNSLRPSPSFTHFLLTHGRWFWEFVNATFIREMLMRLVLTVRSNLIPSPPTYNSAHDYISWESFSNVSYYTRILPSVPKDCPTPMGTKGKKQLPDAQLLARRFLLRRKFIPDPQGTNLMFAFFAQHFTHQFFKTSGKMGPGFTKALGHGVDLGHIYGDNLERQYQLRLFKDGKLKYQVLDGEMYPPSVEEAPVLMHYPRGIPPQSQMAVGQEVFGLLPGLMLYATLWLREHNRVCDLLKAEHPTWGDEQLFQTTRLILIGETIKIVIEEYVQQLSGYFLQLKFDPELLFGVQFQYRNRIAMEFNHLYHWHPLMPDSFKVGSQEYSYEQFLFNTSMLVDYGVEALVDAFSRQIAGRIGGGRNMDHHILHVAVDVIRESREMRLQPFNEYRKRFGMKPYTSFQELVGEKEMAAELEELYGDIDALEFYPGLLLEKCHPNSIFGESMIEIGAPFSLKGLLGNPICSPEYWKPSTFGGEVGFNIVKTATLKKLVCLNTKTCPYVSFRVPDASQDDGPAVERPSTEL

Compound: COc1ccc(-c2nc(C(=O)N3CCN(C)CC3)sc2-c2ccc(OC)cc2)cc1 [FR122047]
IC50 (hCOX-1; [3]): 0.094 ± 0.006 µM
IC50 (hCOX-1; [4]): 0.094 ± 0.006 µM

Compound: COc1ccc2nc(NC(=O)Nc3ccccc3)sc2c1 [Frentizole]
IC50 (hMAO-B [1]; [5]): > 100 µM
IC50 (hMAO-B [1]; [6]): > 100 µM
IC50 (hMAO-A; Table 2, mean ± S.E.M., n = 3, control assays, read-out: IC50 hMAO-A): > 100 µM
IC50 (hCOX-1; [3]): > 100 µM

Compound: Cc1cccc(-c2n[nH]cc2-c2ccc3ncccc3n2)n1 [GW786460X]
IC50 (hMAO-B [1]; [7]): > 100 µM
IC50 (hCOX-1; [4]): > 100 µM
IC50 (hCOX-1; [8]): > 100 µM

Compound: O=Nc1c(-c2c(O)[nH]c3ccccc23)[nH]c2ccccc12 [Indirubin-3′-monoxime, indirubin-3′-monoxime]
IC50 (hMAO-B [1]; [7]): > 100 µM
inhibition at 25 µM (hCOX-1): 28%

Compound: COc1cc(/C=C/C(=O)N2CCC=CC2=O)cc(OC)c1OC [Piperlongumine, piperlongumine]
IC50 (hMAO-B [1]; [5]): 65.1 ± 2.99 µM
IC50 (hMAO-B [1]; [6]): 65 µM
IC50 (hMAO-A): > 100 µM
IC50 (hCOX-1): > 100 µM

Compound: NS(=O)(=O)Cc1noc2ccccc12 [zonisamide]
IC50 (hMAO-B [2]; read-out: IC50 of zonisamide (MAO-B)): ~25 µM
Ki (hMAO-B [2]; read-out: Ki of zonisamide (MAO-B)): 3.1 µM

The remaining lines, values ahead:

IC50 (hMAO-B [1]; [7]): > 100 µM
inhibition at 25 µM (hCOX-1): 19.5%
Compound: CS(=O)(=O)CCNCc1ccc(-c2ccc3ncnc(Nc4ccc(OCc5cccc(F)c5)c(Cl)c4)c3c2)o1 [Lapatinib, lapatinib]

IC50 (hMAO-B [1]; [7]): > 100 µM
IC50 (hCOX-1; [4]): 25.4 ± 3.8 µM
IC50 (hCOX-1; [8]): 25 µM
Compound: O=C1NC(=O)C(c2c[nH]c3ccccc23)=C1c1c[nH]c2ccccc12 [RO-316233]

IC50 (hMAO-B [1]; [7]): > 100 µM
IC50 (hCOX-1; [4]): 23.6 ± 3.53 µM
IC50 (hCOX-1; [8]): 24 µM
Compound: Oc1ccc(-c2nc(-c3ccncc3)c(-c3ccc(F)cc3)[nH]2)cc1 [SB-202190]
